Where two headings read alike, the source gives them in different places.
What was measured:
[1] = molecular target: T1, MMP-14 (Homo sapiens, UniProt P50281); experiment: MMP-14 inhibition (in vitro Ki); assay type: biochemical
T1 construct: The catalytic domain enzyme was expressed in E. coli inclusion bodies, solubilized in urea; made in house

[2] = molecular target: T2, MMP-1 (Homo sapiens, UniProt P03956); experiment: MMP-1 inhibition (in vitro Ki); assay type: biochemical
T2 construct: made in house; host or cells: MMP-1-transfected HT-1080 cells (spent media)
T2 sequence (P03956 100-469): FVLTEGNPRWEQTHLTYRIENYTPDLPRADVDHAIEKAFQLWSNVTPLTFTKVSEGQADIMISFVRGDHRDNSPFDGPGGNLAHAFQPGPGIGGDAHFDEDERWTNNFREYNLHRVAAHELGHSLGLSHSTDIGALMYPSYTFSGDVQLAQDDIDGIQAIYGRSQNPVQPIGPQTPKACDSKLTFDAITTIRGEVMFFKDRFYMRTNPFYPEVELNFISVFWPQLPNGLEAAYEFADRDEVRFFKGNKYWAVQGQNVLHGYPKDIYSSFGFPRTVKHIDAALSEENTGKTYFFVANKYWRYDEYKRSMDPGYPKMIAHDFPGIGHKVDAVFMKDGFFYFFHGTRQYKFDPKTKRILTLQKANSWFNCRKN

[3] = molecular target: T3, MMP-9 (Homo sapiens, UniProt P14780); experiment: MMP-9 inhibition (in vitro Ki); assay type: biochemical
T3 construct: made in house; host or cells: MMP-9-transfected HT1080 cells (spent media)
T3 sequence (P14780 107-707 limits assumed): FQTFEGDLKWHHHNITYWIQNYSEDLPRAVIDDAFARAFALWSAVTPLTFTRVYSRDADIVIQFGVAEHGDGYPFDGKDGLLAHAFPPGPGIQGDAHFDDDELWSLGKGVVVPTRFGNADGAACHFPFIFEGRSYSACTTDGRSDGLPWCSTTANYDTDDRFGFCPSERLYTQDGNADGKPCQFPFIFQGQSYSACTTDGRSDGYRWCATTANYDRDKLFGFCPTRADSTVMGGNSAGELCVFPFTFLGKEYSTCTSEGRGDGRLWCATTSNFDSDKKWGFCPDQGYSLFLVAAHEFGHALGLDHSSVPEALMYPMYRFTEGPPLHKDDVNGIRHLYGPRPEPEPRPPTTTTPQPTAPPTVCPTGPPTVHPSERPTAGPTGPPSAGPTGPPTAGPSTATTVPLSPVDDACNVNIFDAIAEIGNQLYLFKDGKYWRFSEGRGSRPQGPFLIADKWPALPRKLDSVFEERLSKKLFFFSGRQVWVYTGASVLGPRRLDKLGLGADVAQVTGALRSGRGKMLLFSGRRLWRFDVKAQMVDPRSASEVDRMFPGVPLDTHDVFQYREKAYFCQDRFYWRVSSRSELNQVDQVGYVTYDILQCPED

[4] = molecular target: T4, MMP-2 (Homo sapiens, UniProt P08253); experiment: MMP-2 inhibition (in vitro Ki); assay type: biochemical
T4 construct: made in house; host or cells: MMP-2-transfected p2AHT2 cells
T4 sequence (P08253 110-660): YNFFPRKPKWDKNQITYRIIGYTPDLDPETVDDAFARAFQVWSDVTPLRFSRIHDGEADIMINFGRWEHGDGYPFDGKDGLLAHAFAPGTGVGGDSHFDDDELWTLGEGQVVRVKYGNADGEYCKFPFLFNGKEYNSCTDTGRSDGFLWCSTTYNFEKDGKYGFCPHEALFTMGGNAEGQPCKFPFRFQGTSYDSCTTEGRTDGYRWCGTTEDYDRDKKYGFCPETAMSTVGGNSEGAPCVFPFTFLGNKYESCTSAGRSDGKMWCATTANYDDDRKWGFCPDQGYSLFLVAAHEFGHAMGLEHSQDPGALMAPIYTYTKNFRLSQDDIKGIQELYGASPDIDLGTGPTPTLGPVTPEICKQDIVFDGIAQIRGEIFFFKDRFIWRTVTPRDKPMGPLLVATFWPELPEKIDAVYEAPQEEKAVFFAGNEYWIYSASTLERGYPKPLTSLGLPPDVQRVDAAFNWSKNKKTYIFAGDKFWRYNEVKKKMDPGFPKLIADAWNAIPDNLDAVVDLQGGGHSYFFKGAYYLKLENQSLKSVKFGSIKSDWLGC

[5] = molecular target: T5, MMP-13 (Homo sapiens, UniProt P45452); experiment: MMP-13 inhibition (in vitro Ki); assay type: biochemical
T5 construct: made in house; host or cells: baculovirus / insect cells

[6] = test system: solid tumor cancers (colorectal, pancreatic, ovarian, and prostate); details: cited from earlier work
[7] = Table 9, read-out: MMP-14 Ki (IC-50)
[8] = Table 9, read-out: MMP-1 Ki (IC-50)
[9] = Table 9, read-out: MMP-9 Ki (IC-50)
[10] = Table 9, read-out: MMP-2 Ki (IC-50)
[11] = Table 9, read-out: MMP-13 Ki (IC-50)

Row | SMILES | Ki [1, 7] | Ki [2, 8] | Ki [3, 9] | Ki [4, 10] | Ki [5, 11] | Ki ([1]; Table 10, read-out: MMP-14 Ki) | Ki ([2]; Table 10, read-out: MMP-1 Ki) | Ki ([3]; Table 10, read-out: MMP-9 Ki) | Ki ([4]; Table 10, read-out: MMP-2 Ki) | Ki ([5]; Table 10, read-out: MMP-13 Ki) | most common drug-related toxicity ([6]; clinical trials in patients) | effect on cancer-specific antigens used as surrogate markers for biological activity ([6]; patients with advanced, rapidly progressive, treatment-refractory solid tumor cancers)
1 | O=C(NO)C1(S(=O)(=O)N2CCC(c3ccc(-c4nccs4)cn3)CC2)CCOCC1 [Example A200] | > 10000 nM | > 10000 nM | 6.77 nM | 8.83 nM | 6.77 nM | – | – | – | – | – | – | –
2 | Cn1cc(-c2ccc(C3CCN(S(=O)(=O)C4(C(=O)NO)CCOCC4)CC3)nc2)cn1 [Example A201] | 3380 nM | 5850 nM | 16.8 nM | 4.25 nM | 2.14 nM | – | – | – | – | – | – | –
3 | Cn1nnc(-c2ccc(C3CCN(S(=O)(=O)C4(C(=O)NO)CCOCC4)CC3)cc2)n1 [Example A202] | 1230 nM | 2300 nM | 0.92 nM | 0.46 nM | 2.08 nM | – | – | – | – | – | – | –
4 | O=C(NO)C1(S(=O)(=O)N2CCC(c3ccc(CCC(F)(F)C(F)(F)F)cn3)CC2)CCN(C2CC2)CC1 [Example A204] | 5100 nM | > 10000 nM | 0.29 nM | 0.65 nM | 0.23 nM | – | – | – | – | – | – | –
5 | O=C(NO)C1(S(=O)(=O)N2CCN(c3ccc(-c4ccsc4)c(F)c3)CC2)CCOCC1 [Example A205] | 297 nM | 3590 nM | 1.16 nM | 0.33 nM | 0.93 nM | – | – | – | – | – | – | –
6 | O=C(NO)C1(S(=O)(=O)N2CCC(c3cnc(OCC(F)(F)C(F)F)cn3)CC2)CCOCC1 [Example A206] | 5750 nM | 4460 nM | 0.84 nM | 0.71 nM | 0.9 nM | – | – | – | – | – | – | –
7 | O=C(/C=C/C=C/C1CCN(S(=O)(=O)C2(C(=O)NO)CCOCC2)CC1)N1CCOCC1 [Example A208] | > 10000 nM | 7360 nM | 1590 nM | 178 nM | 1.94 nM | – | – | – | – | – | – | –
8 | O=C(CCCCC1CCN(S(=O)(=O)C2(C(=O)NO)CCOCC2)CC1)N1CCc2ccccc21 [Example B1, (4-({4-[5-(2,3-dihydro-1H-indol-1-yl)-5-oxopentyl]piperidin-1-yl}sulfonyl)-N-hydroxytetrahydro-2H-pyran-4-carboxamide)] | – | – | – | – | – | > 10000 nM | 482 nM | 380 nM | 30.7 nM | 0.229 nM | – | –
9 | CCC(CC)(C(=O)NO)S(=O)(=O)N1CCC(Oc2ccc(SC(F)(F)F)cc2)CC1 [Example B2, 2-ethyl-N-hydroxy-2-[(4-{4-[(trifluoromethyl)thio]phenoxy}piperidin-1-yl)sulfonyl]butanamide] | – | – | – | – | – | 1540 nM | 2910 nM | 0.483 nM | 1.21 nM | 1.07 nM | – | –
10 | COCCC(C(=O)NO)S(=O)(=O)N1CCC(Oc2ccc(SC(F)(F)F)cc2)CC1 (stereo not drawn) [Example B3, N-hydroxy-4-methoxy-2-[(4-{4-[(trifluoromethyl)thio]phenoxy}piperidin-1-yl)sulfonyl]butanamide] | – | – | – | – | – | 1950 nM | > 10000 nM | 0.332 nM | 0.791 nM | 0.985 nM | – | –
11 | COCCC(CCOC)(C(=O)NO)S(=O)(=O)N1CCC(Oc2ccc(SC(F)(F)F)cc2)CC1 [Example B4, N-hydroxy-4-methoxy-2-(2-methoxyethyl)-2-[(4-{4-[(trifluoromethyl)thio]phenoxy}piperidin-1-yl)sulfonyl]butanamide] | – | – | – | – | – | 1640 nM | 2060 nM | 0.181 nM | 0.654 nM | 0.45 nM | – | –
12 | CNC(=O)[C@@H](NC(=O)[C@H](CC(C)C)[C@H](O)C(=O)NO)C(C)(C)C [Marimastat] | – | – | – | – | – | – | – | – | – | – | musculoskeletal pain and stiffness | dose-related reduction in the rise of cancer-specific antigens

— patent publication US20050209278A1, “Piperidinyl- and piperazinyl-sulfonylmethyl hydroxamic acids and their use as protease inhibitors” (priority 2002, published 2005)
